# Values quoted from earlier work, collected in patent US6184217A (Cephalon, Inc., priority 1997, dated 2001).
# Tests used:
# [1] = test system: smooth muscle contraction; settings: cited from earlier work
# elongation of neurazone = settings: cited from earlier work
# protein kinase C (PKC) = settings: cited from earlier work
# histamine release = settings: cited from earlier work
# [2] = test system: lethality resulting from endotoxin administration; settings: in vivo; cited from earlier work
# IL-2 production = settings: cited from earlier work
# inflammation = settings: cited from earlier work
# smooth muscle MLCK = settings: cited from earlier work
smiles,measurement,setting,value
COC(=O)C1(O)CC2OC1(C)n1c3ccccc3c3c4c(c5c6ccccc6n2c5c31)C(=O)NC4 (centres unmarked) [Compound K-252a],inhibiting smooth muscle contraction,[1],inhibiting smooth muscle contraction
same,inhibiting elongation of neurazone,elongation of neurazone,inhibiting elongation of neurazone
same,inhibition of protein kinase C,protein kinase C (PKC),strongly inhibits protein kinase C (PKC)
same,inhibiting histamine release,histamine release,inhibiting histamine release
same,lethality resulting from endotoxin administration,[2],reduces the lethality resulting from endotoxin administration
same,inhibiting IL-2 production,IL-2 production,inhibiting IL-2 production
same,anti-inflammatory action,inflammation,anti-inflammatory action
same,inhibiting smooth muscle MLCK,smooth muscle MLCK,inhibiting smooth muscle MLCK
